Test results: PubChem BioAssay AID1845194 (Molecular Pharmacology Branch, DTP, NCI, 2023)

System: 287954-098-R-J1 tumor spheroid viability
Assay: Anticancer human tumor 287954-098-R-J1 patient-derived Ewing sarcoma cell line growth inhibition
Conditions: spheroids with HUVEC and MSC; for viability, T/C: stronger effect = lower value
Method in brief: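 Single agents and combinations were tested on spheroids built from tumor cells plus HUVEC and hMSC, at half-log dilutions starting at or near clinical Cmax, else 10 microM; final DMSO 0.25% (v/v).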

[1] = curve of first compound, second compound 1 µM
[2] = curve of first compound, second compound 3.16 µM
[3] = curve of first compound, second compound 10 µM
[4] = curve of first compound, second compound 31.6 µM
[5] = curve of first compound, second compound 100 µM
[6] = second compound 1 µM, first compound 0.0316 µM
[7] = second compound 1 µM, first compound 0.1 µM
[8] = second compound 1 µM, first compound 0.316 µM
[9] = second compound 1 µM, first compound 1 µM
[10] = second compound 1 µM, first compound 3.16 µM
[11] = second compound 1 µM, first compound 10 µM
[12] = second compound 3.16 µM, first compound 0.0316 µM
[13] = second compound 3.16 µM, first compound 0.1 µM
[14] = second compound 3.16 µM, first compound 0.316 µM
[15] = second compound 3.16 µM, first compound 1 µM
[16] = second compound 3.16 µM, first compound 3.16 µM
[17] = second compound 3.16 µM, first compound 10 µM
[18] = second compound 10 µM, first compound 0.0316 µM
[19] = second compound 10 µM, first compound 0.1 µM
[20] = second compound 10 µM, first compound 0.316 µM
[21] = second compound 10 µM, first compound 1 µM
[22] = second compound 10 µM, first compound 3.16 µM
[23] = second compound 10 µM, first compound 10 µM
[24] = second compound 31.6 µM, first compound 0.0316 µM
[25] = second compound 31.6 µM, first compound 0.1 µM
[26] = second compound 31.6 µM, first compound 0.316 µM
[27] = second compound 31.6 µM, first compound 1 µM
[28] = second compound 31.6 µM, first compound 3.16 µM
[29] = second compound 31.6 µM, first compound 10 µM
[30] = second compound 100 µM, first compound 0.0316 µM
[31] = second compound 100 µM, first compound 0.1 µM
[32] = second compound 100 µM, first compound 0.316 µM
[33] = second compound 100 µM, first compound 1 µM
[34] = second compound 100 µM, first compound 3.16 µM
[35] = second compound 100 µM, first compound 10 µM
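Further: spheroids exposed to compound for 7 days before viability readout.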
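Wherever viability, T/C is given: luminescent signal taken as surrogate of viable cell content; 100% = DMSO vehicle control viability and lower means growth inhibition.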

Structure (SMILES)	IC50 [1]	IC50 [2]	IC50 [3]	IC50 [4]	IC50 [5]	viability, T/C [6]	viability, T/C [7]	viability, T/C [8]	viability, T/C [9]	viability, T/C [10]	viability, T/C [11]	viability, T/C [12]	viability, T/C [13]	viability, T/C [14]	viability, T/C [15]	viability, T/C [16]	viability, T/C [17]	viability, T/C [18]	viability, T/C [19]	viability, T/C [20]	also measured
CC1COCCN1c1cc(-c2ccnn2C)c2ccnc(-c3ccn[nH]3)c2n1 (stereo unspecified) + Cn1nnc2c(C(N)=O)ncn2c1=O	171 nM	187 nM	96.3 nM	98.6 nM	< 31.6 nM	112%	75.2%	21%	5.68%	1.55%	2.68%	120%	91.1%	15.7%	4.89%	1.74%	2.56%	114%	47.9%	9.18%	viability, T/C [21]: 5.1%; viability, T/C [22]: 1.63%; viability, T/C [23]: 2.11%; viability, T/C [24]: 110%; viability, T/C [25]: 49.3%; viability, T/C [26]: 8.98%; viability, T/C [27]: 3.51%; viability, T/C [28]: 1.69%; viability, T/C [29]: 2.41%; viability, T/C [30]: 12%; viability, T/C [31]: 4.47%; viability, T/C [32]: 2.32%; viability, T/C [33]: 1.6%; viability, T/C [34]: 1.28%; viability, T/C [35]: 2.24%
COc1ccc([C@@H](O)c2cc(-c3ncnc4cc(N5CCOCC5)ccc34)c(F)cc2Cl)nn1 + Cn1nnc2c(C(N)=O)ncn2c1=O	> 10000 nM	> 10000 nM	> 10000 nM	> 10000 nM	> 10000 nM	107%	109%	109%	112%	101%	92.8%	105%	105%	104%	107%	101%	94.5%	107%	106%	101%	viability, T/C [21]: 105%; viability, T/C [22]: 105%; viability, T/C [23]: 101%; viability, T/C [24]: 103%; viability, T/C [25]: 111%; viability, T/C [26]: 105%; viability, T/C [27]: 112%; viability, T/C [28]: 110%; viability, T/C [29]: 97%; viability, T/C [30]: 102%; viability, T/C [31]: 110%; viability, T/C [32]: 104%; viability, T/C [33]: 109%; viability, T/C [34]: 96.9%; viability, T/C [35]: 84%
COc1cc2c(cc1O)CCNC21CSC2c3c(OC(C)=O)c(C)c4c(c3C(COC1=O)N1C(O)C3Cc5cc(C)c(OC)c(O)c5C(C21)N3C)OCO4 (stereo unspecified)																					viability, T/C (compound 30 pM): 106% [middle of 10 runs]; viability, T/C (compound 94.9 pM): 107% [middle of 10 runs]; viability, T/C (compound 0.0003 µM): 105% [middle of 10 runs]; viability, T/C (compound 0.000949 µM): 0.29% [middle of 9 runs]; viability, T/C (compound 0.003 µM): 0.17% [middle of 8 runs]; IC50 (compound alone, run of 10/25/2019): 0.548 nM [middle of 9 runs]
